Results: patent US20250287947A1, “BIOCIDES AND ADHESIVE BINDING THEREOF” (EBERHARD KARLS UNIVERSITÄT TÜBINGEN MEDIZINISCHE FAKULTÄT, priority 2022, published 2025)

Columns and labels:
[1] = test system: β-galactosidase-expressing E. coli strain; assay: Wash resistance and biocidal activity of Py-C12 treated silk fabric (Example 17); type: cell-based; conditions: treated with 1% (w/v) free base; washed 10, 20 and 30 times with water 15 min; E. coli 3 days at 37° C.
Procedure: In a first step, 1% (w/v) Py-C12 free base in water was warmed to 50° C. to obtain a liquid solution. After incubation with the Py-C12 solution, the samples were cooled to room temperature upon which the liquid Py-C12 was converted into a solid phase and thus immobilized to the material. After drying, samples were washed with water at room temperature 10, 20, and 30 times for 15 minutes each time. Thereafter, all samples were inoculated with a β-galactosidase-expressing E. coli strain and then incubated for 3 days at 37° C.

[2] = Influence of pH on state of matter of Py-C12 at 20° C. (Example 1); type: physicochemical; parameters: key to state of matter: X: liquid; o: solid; conditions: for solubility in water / state of matter: 1% (w/v); for state of matter: 1% w/v, 20° C.
Description: 1% (w/v) 5-N-carboxamido-2-pyrrolidone-N-n-dodecyl propane-1,3-diamine (Py-C12) free base was adjusted with HCl or NaOH to pH values between 3.0 and 10.0.

[3] = Modulation of the state of matter by temperature shift (Example 10); type: physicochemical; conditions: 1% and 5% (w/v) free base in water
[4] = Influence of temperature on the state of matter of Py-C12 at pH 7.0 and pH 9.0 (Example 2); type: physicochemical; parameters: key to state of matter: X: liquid; o: solid; conditions: for solubility in water / state of matter: 1% (w/v); for state of matter: 1% w/v
Procedure: 1% (w/v) 5-N-carboxamido-2-pyrrolidone-N-n-dodecyl propane-1,3-diamine (Py-C12) free base was adjusted with HCl or NaOH to pH values 7.0 and 9.0 and subsequently incubated at temperatures between 2° C. and 60° C. […] (see table 2).

[5] = Modulation of the state of matter by pH shift using HCl and NaOH (Example 7); type: physicochemical
Pseudomonas aeruginosa = assay: Quantitative Suspension Test, modified DIN EN ISO 11930:2019 with organic load; type: cell-based; conditions: 0.025% (w/v) Py-C12, pH 7.0, organic load, incubation 1 day
Procedure: (§1) In order to evaluate the bactericidal and fungicidal efficacy of Py-C12, Quantitative Suspension Tests were carried out under dirty conditions according to modified DIN EN ISO 11930:2019 with organic load using incubation periods of one and three days, respectively. For this purpose, 5-N-carboxamido-2-pyrrolidone-N-n-dodecyl propane-1,3-diamine (Py-C12) solutions were adjusted to pH 7.0 with HCl and subsequently diluted to corresponding test concentrations.

Aspergillus brasiliensis = assay: as above; type: cell-based; conditions: 0.5% (w/v) Py-C12, pH 7.0, organic load, incubation 3 days
Procedure: as §1

Staphylococcus aureus = assay: as above; type: cell-based; conditions: 0.01% (w/v) Py-C12, pH 7.0, organic load, incubation 1 day
Procedure: as §1

Candida albicans = assay: as above; type: cell-based; conditions: 0.025% (w/v) Py-C12, pH 7.0, organic load, incubation 1 day
Procedure: as §1

Escherichia coli = assay: as above; type: cell-based; conditions: 0.025% (w/v) Py-C12, pH 7.0, organic load, incubation 1 day
Procedure: as §1

[6] = test system: β-galactosidase-expressing E. coli strain; assay: Wash resistance and biocidal activity of Py-C12 treated cotton textile (Example 6); type: cell-based; conditions: treated with 1% (w/v) pH 7.0, E. coli 3 days at 37° C.
Procedure: Round sterile cotton textile samples were treated with a liquid Py-C12 solution (1% (w/v) in water; pH 7.0) followed by intensive washing steps. For controls, samples were treated with water instead of Py-C12.
For testing wash resistance in an aqueous system samples were incubated in water for 20 h at 50° C. and then washed 16 times with water at 37° C. for 5 to 10 minutes each time.
For testing wash resistance in an alcoholic/acidic system, samples were washed 8 times with 2-propanol/1 mN HCl solution and 8 times with water in total.
After all washing steps, all samples were inoculated with a β-galactosidase-expressing E. coli strain and then incubated for 3 days at 37° C.

CCCCCCCCCCCCNCCCNC(=O)C1CCC(=O)N1 (stereo not drawn) [Py-C12, 5-N-carboxamido-2-pyrrolidone-N′-n-dodecyl propane-1,3-diamine]
bacterial growth on treated silk fabric after washing [1]: Blue coloured bacteria only appear in control sample
solubility in water / state of matter ([2]; pH values </=7.8, room temperature): completely soluble
solubility in water / state of matter ([2]; pH values >/=8): solid substance
state of matter ([2]; pH 3.0): X
state of matter ([2]; pH 4.0): X
state of matter ([2]; pH 5.0): X
state of matter ([2]; pH 6.0): X
state of matter ([2]; pH 7.0): X
state of matter ([2]; pH 7.8): X
state of matter ([2]; pH 8.0): o
state of matter ([2]; pH 9.0): o
state of matter ([2]; pH 10.0): o
solubility in water ([3]; 50° C.): completely soluble
state of matter ([3]; room temperature): readily precipitated
solubility in water / state of matter ([4]; pH 7, temperatures between 2° C. and 60° C.): completely soluble
solubility in water / state of matter ([4]; pH 9.0, temperatures between 2° C. and 60° C.): only present in liquid state at the tested temperatures of 50 °C and 60 °C
state of matter ([4]; pH 7.0, 2° C.): X
state of matter ([4]; pH 7.0, 4° C.): X
state of matter ([4]; pH 7.0, 8° C.): X
state of matter ([4]; pH 7.0, 12° C.): X
state of matter ([4]; pH 7.0, 16° C.): X
state of matter ([4]; pH 7.0, 20° C.): X
state of matter ([4]; pH 7.0, 30° C.): X
state of matter ([4]; pH 7.0, 38° C.): X
state of matter ([4]; pH 7.0, 50° C.): X
state of matter ([4]; pH 7.0, 60° C.): X
state of matter ([4]; pH 9.0, 2° C.): o
state of matter ([4]; pH 9.0, 4° C.): o
state of matter ([4]; pH 9.0, 8° C.): o
state of matter ([4]; pH 9.0, 12° C.): o
state of matter ([4]; pH 9.0, 16° C.): o
state of matter ([4]; pH 9.0, 20° C.): o
state of matter ([4]; pH 9.0, 30° C.): o
state of matter ([4]; pH 9.0, 38° C.): o
state of matter ([4]; pH 9.0, 50° C.): X
state of matter ([4]; pH 9.0, 60° C.): X
solubility in water ([5]; 1% (w/v) free base adjusted with HCl to pH 7, room temperature): completely soluble
state of matter after pH increase ([5]; 1% (w/v), NaOH added to increase pH above 9.0, time dependent): started to precipitate
Germ reduction factor log10 (Pseudomonas aeruginosa): ≥5.6 log10
Germ reduction factor log10 (Aspergillus brasiliensis): 4.6 log10
Germ reduction factor log10 (Staphylococcus aureus): ≥5.6 log10
Germ reduction factor log10 (Candida albicans): 4.2 log10
Germ reduction factor log10 (Escherichia coli): ≥5.5 log10
biocidal effect of treated cotton textile after washing ([6]; alcoholic/acidic system: 8 washes 2-propanol/1 mN HCl and 8 with water): completely colonized
biocidal effect of treated cotton textile after washing ([6]; aqueous system: water 20 h at 50° C., then 16 water washes at 37° C.): maintained its biocidal effect
